Experimental data reported in patent US20020036154A1, “Solid pharmaceutical dosage formulation of hydrophobic drugs” (priority 2000, published 2002).

Assay: Dissolution profiles of hydrocortisone (CCN90306A) Accudep Cores (paddles, 75 rpm, distilled water)
Type: physicochemical
Details: 1 mg CCN90306A, vs control core, 75 rpm paddles, n=3, FIG. 7
Method: Accudep™ Cores were made as follows: Control Accudep™ Core: Sealed a 1 mg deposition of CCN90306A between two polymer sheets with the following composition: 45% HPMC, 45% HPC, 10% PEG.

SMILES: C[C@]12CCC(=O)C=C1CC[C@@H]1[C@@H]2[C@@H](O)C[C@@]2(C)[C@H]1CC[C@]2(O)C(=O)CO [CCN90306A, Hydrocortisone]
- dissolution at 20- and 30-minute sample points (Polysorbate 80 incorporated in film Accudep Core (20%)): faster dissolution
- dissolution at 20- and 30-minute sample points (SLS incorporated in film Accudep Core (20% SLS)): faster dissolution
